From patent US7875602B2 (priority 2005, dated 2011)
Structures can show the parent of a compound that is named as a salt.

Tests used:
[1] = test system: PC-3 human prostate cancer cells; test: In vitro chemoradiosensitization, cell colony count; format: cell-based; settings: for radiosensitivity of the cancer cell after prior exposure: 5 nM, 2 h exposure before X-rays; for Survival (%): Radiation + compound at 5 nM, 2 h drug exposure
Experimental: Chemoradiosensitizing effects of compound 13, compound 10, and compound 20 on human cancer cells were evaluated at a dose of 5 nM. PC-3 human prostate cancer cells were plated on petri dishes in triplicates were allowed to attach. After irradiation, cells were rinsed with HBSS (Hank's balanced salt solution), and covered with fresh media. Cells were cultured for 8-9 days in a 37° C. incubator. The resulting cell colonies were stained and counted. […] Other compounds of this invention can similarly be evaluated in accordance with this method.

[2] = test system: PC-3: human prostate cancer cell line; format: cell-based; settings: for IC50: Homo sapiens, 72 h, read-out: IC50 (nM) PC-3
[3] = test system: DU-145 human prostate cancer cells; test: Chemotherapeutic activity, cell colony count after 24 hr drug exposure; format: cell-based; settings: 24 hr exposure
Experimental: (§1) Chemotherapeutic effects of compound 13 on human prostate cancer cells (PC-3 and DU-145) were evaluated at dose concentrations between 0 and 10 nM. Cells plated on Petri dishes in triplicates were allowed to attach, then cells were subjected to 24 hr drug exposure at 37° C. The cells were then rinsed with HBSS ((Hank's balanced salt solution) and covered with fresh media. Cells were cultured for 8-9 days in a 37° C. incubator. The resulting cell colonies were stained and counted. Results are presented in Table 4.

[4] = test system: PC-3 human prostate cancer cells; test: as above; format: cell-based; settings: 24 hr exposure
Experimental: as §1

[5] = test system: DMS-14 small lung cancer cells; test: In vitro chemoradiosensitization, cell colony count; format: cell-based, human; settings: for Survival (%): Radiation + compound at 5 nM, 2 h drug exposure
Experimental: Chemoradiosensitizing effects of compound 13 on human cancer cells were evaluated at a dose of 5 nM. DMS-14 small lung cancer cells were plated on petri dishes in triplicates were allowed to attach. After irradiation, cells were rinsed with HBSS (Hank's balanced salt solution), and covered with fresh media. Cells were cultured for 8-9 days in a 37° C. incubator. The resulting cell colonies were stained and counted. […] Other compounds of this invention can similarly be evaluated in accordance with this method.

[6] = test system: MTG-B mouse mammary adenocarcinoma tumors; test: In vivo chemoradiosensitization in tumor-bearing mice; set-up: species or system C3H/HeN mice; settings: single i.p. injection at MTD
Experimental: To determine whether the pronounced effects of compound 13 in tissue culture could be duplicated in solid tumors, in vivo chemoradiosensitization studies were performed on C3H/HeN mice bearing MTG-B mouse mammary adenocarcinoma tumors. Prior to treatment, the tumor grew exponentially following implantation into the flanks of the mice and reached a diameter of 8 mm (268.08 cu. mm) by day 7 to 10. The mice were injected i.p. with compound 13 at MTD using a single injection and then irradiated with a radiation dose of 22 Gy 24 h after the injection. Control groups of mice bearing 8 mm diameter tumors were treated with vehicle alone, or radiation alone, or drug alone. After treatment, tumor sizes were measured by caliper every day. Daily measurement of the tumor diameters (d1, d2) in two orthogonal directions were used to calculate the tumor volume (tumor volume=π/6{(d1+d2)/2}^3) using the approximation that the tumors were spherical (results shown in FIG. 1). The values of time (days) required to grow the tumor to twice their initial size after various treatments were calculated as tumor doubling time (TDT) (±SE) for evaluating the treatment effects. Survival times and curative effects after treatment were also be observed and recorded. Other compounds of this invention can similarly be evaluated in accordance with this method.

[7] = Acute toxicity, MTD40 (maximum tolerated dose at day 40); format: in vivo, C3H/HeN mice; settings: i.p. injection, mice checked daily for 45 days; values only in FIG. 3
Experimental: Drugs were dissolved in cremophor:alcohol (1:1) and diluted in saline to a 5% cremophor, 5% alcohol, 90% saline for i.p. injection.
Acute toxicities of a compound of this invention, compound 13, topotecan, CPT and cisplatin were evaluated on C3H/HeN mice (female, 6-8 week old, body weight 18-20 g). The MTD40 (maximum tolerated dose at day 40) values were determined. In the consecutive type studies, 6 mice were dosed at moderate doses of 10, 70, or 106.98, or 141.47, or 187.1 mg/kg. If no severe and irreversible toxicity (euthanasia is required) occurred at these doses, additional 6 animals were initiated at a dose which is 1.3225-1.5283 times higher than the previous non-toxic doses. Sequential dosages (261.94, or 366.72, or 500 mg/kg) were increased until severe and irreversible toxicity (whereby euthanasia is required) occurs. […] The result of this exercise was two dosages, one apparently nonlethal and the other lethal if severe and irreversible toxicity occurred and euthanasia was required. Six mice were dosed at each dosage. If no severe and irreversible toxicity occurred at the lower dosage and at least one with severe and irreversible toxicity at the higher dose, then the lower dose was considered to the MTD. […] Drug toxicity was evaluated on mice, checked daily for 45 days. […] Other compounds of this invention can similarly be evaluated in accordance with this method.

[8] = compound plus radiation, 22 Gy 24 h after the injection

| SMILES | melting point | radiosensitivity of the cancer cell after prior exposure [1] | Survival (%) ([1]; X-rays 0 Gy) | Survival (%) ([1]; X-rays 1 Gy) | Survival (%) ([1]; X-rays 2 Gy) | Survival (%) ([1]; X-rays 4 Gy) | IC50 [2] | further results |
| --- | --- | --- | --- | --- | --- | --- | --- | --- |
| CC[C@@]1(OC(=O)[C@@H](C)ON=C2c3cc([N+](=O)[O-])cc([N+](=O)[O-])c3-c3c2cc([N+](=O)[O-])cc3[N+](=O)[O-])C(=O)OCc2c1cc1n(c2=O)Cc2cc3c(CN(C)C)c(O)ccc3nc2-1 (as salt: hydrochloride) [Compound 10] | 210 to 213 °C (dec.) |  |  |  |  |  |  |  |
| CC[C@@]1(OC(=O)CON=C2c3cc([N+](=O)[O-])cc([N+](=O)[O-])c3-c3c2cc([N+](=O)[O-])cc3[N+](=O)[O-])C(=O)OCc2c1cc1n(c2=O)Cc2cc3c(CN(C)C)c(O)ccc3nc2-1 (as salt: hydrochloride) [Compound 16] | 210 to 215 °C (dec.) |  |  |  |  |  |  |  |
| CC[C@@]1(OC(=O)[C@@H](C)ON=C2c3cc([N+](=O)[O-])cc([N+](=O)[O-])c3-c3c2cc([N+](=O)[O-])cc3[N+](=O)[O-])C(=O)OCc2c1cc1n(c2=O)Cc2cc3c(CN(C)C)c(O)ccc3nc2-1 [Compound 10] |  | significantly increased the radiosensitivity | 100% | 90% | 66% | 21% |  |  |
| CC[C@@]1(OC(=O)[C@@H](C)ON=C2c3cc([N+](=O)[O-])cc([N+](=O)[O-])c3-c3c2cc([N+](=O)[O-])cc3[N+](=O)[O-])C(=O)OCc2c1cc1n(c2=O)Cc2cc3cc(O)ccc3nc2-1 [Compound 20] | 210 to 215 °C (dec.) | significantly increased the radiosensitivity | 100% | 82% | 65% | 22% | 6 nM |  |
| CC[C@@]1(OC(=O)[C@H](C)ON=C2c3cc([N+](=O)[O-])cc([N+](=O)[O-])c3-c3c2cc([N+](=O)[O-])cc3[N+](=O)[O-])C(=O)OCc2c1cc1n(c2=O)Cc2cc3ccccc3nc2-1 [Compound 17] |  |  |  |  |  |  | 6 nM |  |
| CC[C@@]1(O)C(=O)OCc2c1cc1n(c2=O)Cc2cc3c(CN(C)C)c(O)ccc3nc2-1 [Topotecan, (20S)-9-dimethylaminomethyl-10-hydroxy CPT, reference compound] |  |  |  |  |  |  |  | IC50 (nM) PC-3 ([2]; 72 hours drug incubation, 50% inhibition of colony formation): no effect |
| CC[C@@]1(OC(=O)[C@@H](C)ON=C2c3cc([N+](=O)[O-])cc([N+](=O)[O-])c3-c3c2cc([N+](=O)[O-])cc3[N+](=O)[O-])C(=O)OCc2c1cc1n(c2=O)Cc2cc3ccccc3nc2-1 [Compound 13] |  | significantly increased the radiosensitivity | 100% | 83% | 60% | 22% | 5 nM | DU-145 Cells % Survival ([3]; drug conc. 1 nM): 82%; DU-145 Cells % Survival ([3]; drug conc. 5 nM): 43%; DU-145 Cells % Survival ([3]; drug conc. 10 nM): 5%; PC-3 Cells % Survival ([4]; drug conc. 1 nM): 98%; PC-3 Cells % Survival ([4]; drug conc. 5 nM): 52%; PC-3 Cells % Survival ([4]; drug conc. 10 nM): 10%; radiosensitivity of the cancer cell after prior exposure ([5]; 5 nM, 2 h exposure before X-rays): significantly increased the radiosensitivity; Survival (%) ([5]; X-rays 0 Gy): 100%; Survival (%) ([5]; X-rays 2 Gy): 44%; Survival (%) ([5]; X-rays 4 Gy): 23%; Survival (%) ([5]; X-rays 8 Gy): 3%; Survival ([6]; compound alone): 24 days; TDT (days), tumor doubling time ([6]; compound alone): 12 days; Survival [6, 8]: 90 days; TDT (days), tumor doubling time [6, 8]: 33 days; toxicity compared with camptothecin and topotecan [7]: Decreased Toxicity |
